Test systems include A498 renal; NCI-H226 lung; MCF7 breast; A549 NSCLC; SK-MEL-5 melanoma; DU-145 prostate; RXF 393 renal; IGROV1 ovarian; HL-60(TB) leukemia; CAKI-1 renal.
Holding throughout (test): inhibition of tumour cell growth, NCI panel, 48 h

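Compound exposure: 48 hours, 5 concentrations, 96-well plates. Abbreviation: GI50, concentration required for 50% inhibition of growth. At the TGI there is no net growth.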 Some results are limits rather than exact numbers.

For `CC12C3C4C1C1C2C3C41CO` (stereo not given), the TGI in the experiment with A498 renal, in the experiment with NCI-H226 lung, in the experiment with MCF7 breast, with A549 NSCLC, with SK-MEL-5 melanoma and with DU-145 prostate was over 100 µM each time. The TGI with RXF 393 renal, with IGROV1 ovarian, in the experiment on HL-60(TB) leukemia and in the experiment with CAKI-1 renal was over 100 µM each time.

Take `O=[N+]([O-])C(/C=C(\Cl)[N+](=O)[O-])=C1Nc2ccccc2N1`: the TGI with A498 renal is 70.4 µM; in the experiment on NCI-H226 lung, 97.2 µM; with MCF7 breast, over 100 µM; with A549 NSCLC, over 100 µM; with SK-MEL-5 melanoma it was over 100 µM; with DU-145 prostate, over 100 µM. Further, the TGI is 95.9 µM in the experiment with RXF 393 renal, over 100 µM with IGROV1 ovarian, over 100 µM with HL-60(TB) leukemia and 69.4 µM in the experiment with CAKI-1 renal.

For `COc1ccc(/C=C2/CSCC3=C2NC(=S)NC3c2ccc(OC)c(OC)c2OC)c(OC)c1OC` (stereo not given), the TGI with A498 renal was 39.1 µM; with NCI-H226 lung, 99.3 µM; in the experiment on MCF7 breast, over 100 µM; with A549 NSCLC, 95.9 µM; in the experiment on SK-MEL-5 melanoma, 29.8 µM; in the experiment with DU-145 prostate, over 100 µM. Further, the TGI in the experiment with RXF 393 renal was 52.9 µM; in the experiment on IGROV1 ovarian, 44.7 µM; with HL-60(TB) leukemia, over 100 µM; in the experiment on CAKI-1 renal, 92.2 µM.

In the case of `CN(C)c1ccc(/C=C/c2ccc(S(N)(=O)=O)cc2)cc1`, the TGI in the experiment on A498 renal was 40.3 µM; in the experiment with NCI-H226 lung, 33 µM; in the experiment with MCF7 breast, over 100 µM; in the experiment on A549 NSCLC it was 26.2 µM; in the experiment with SK-MEL-5 melanoma it was 25.8 µM; with DU-145 prostate it was 49.8 µM. The TGI in the experiment on RXF 393 renal was over 100 µM; with IGROV1 ovarian, 33.4 µM; in the experiment on HL-60(TB) leukemia, over 100 µM; in the experiment with CAKI-1 renal it was over 100 µM. The GI50 with NCI-H226 lung is 12.1 µM; in the experiment with A549 NSCLC it was 10.1 µM; in the experiment on IGROV1 ovarian, 13.4 µM; in the experiment on HL-60(TB) leukemia it was over 100 µM; in the experiment on CAKI-1 renal, 50.3 µM.

In the case of `COC(=O)C1Cc2ccc(O)c(O)c2CN1` (stereo not given), the TGI in the experiment with A498 renal is over 100 µM; with NCI-H226 lung, over 100 µM; in the experiment on MCF7 breast, 32 µM; with A549 NSCLC, over 100 µM; in the experiment with SK-MEL-5 melanoma, 28.5 µM; in the experiment on DU-145 prostate, 81.2 µM. For the same compound, the TGI with RXF 393 renal was over 100 µM; with IGROV1 ovarian, over 100 µM; in the experiment with HL-60(TB) leukemia it was 72.6 µM; with CAKI-1 renal it was over 100 µM.

Turning to `Cc1ccc(C2(c3ccc(Cl)cc3)c3ccccc3C3=NCCN32)cc1` (stereo not given), the TGI with A498 renal was found to be 20 µM; in the experiment with NCI-H226 lung, 35.6 µM; with MCF7 breast, 20.5 µM; with A549 NSCLC it was 25.3 µM; in the experiment on SK-MEL-5 melanoma, 23.2 µM; in the experiment with DU-145 prostate it was 26.1 µM. Also, the TGI came to 10.9 µM in the experiment on RXF 393 renal, 14.9 µM in the experiment on IGROV1 ovarian, 23.9 µM in the experiment with HL-60(TB) leukemia and 37.9 µM in the experiment with CAKI-1 renal.

As to `CC1(C)[C@@H]2CC[C@]1(C)[C@H](OC(=O)/C=C/c1ccccc1)C2`, the TGI was 32.3 µM in the experiment on A498 renal; 36.4 µM in the experiment with NCI-H226 lung; 30.8 µM with MCF7 breast; over 100 µM in the experiment on A549 NSCLC; 30.5 µM in the experiment on SK-MEL-5 melanoma; 47.9 µM in the experiment with DU-145 prostate. Further, the TGI in the experiment on RXF 393 renal is 33.2 µM; with IGROV1 ovarian it was 51.8 µM; with HL-60(TB) leukemia it was 40.5 µM; in the experiment with CAKI-1 renal it was 38 µM.

Consider `S=C(N/N=C(\c1ccccc1)c1ccccn1)NC1CCCCC1`, for which the TGI with A498 renal, in the experiment with NCI-H226 lung, in the experiment with MCF7 breast, in the experiment on A549 NSCLC, in the experiment on SK-MEL-5 melanoma and in the experiment on DU-145 prostate was over 100 µM each time. The TGI in the experiment with RXF 393 renal, with IGROV1 ovarian, in the experiment on HL-60(TB) leukemia and in the experiment with CAKI-1 renal was over 100 µM throughout.

On to `COc1cc(-c2nc3ccc(N4CCN(C)CC4)cc3[nH]2)c(OC)c2[nH]c(COC(C)=O)nc12`, for which the TGI in the experiment on A498 renal was over 100 µM; with NCI-H226 lung it was over 100 µM; in the experiment with MCF7 breast, over 100 µM; in the experiment with A549 NSCLC, over 100 µM; in the experiment with SK-MEL-5 melanoma, over 100 µM; in the experiment on DU-145 prostate, 95.5 µM. Moreover, the TGI in the experiment on RXF 393 renal is 59.4 µM; with IGROV1 ovarian, over 100 µM; in the experiment with HL-60(TB) leukemia, over 100 µM; in the experiment on CAKI-1 renal, over 100 µM.

For `COc1cc(CSc2ccc(O)cc2)cc(OC)c1OC`, the TGI with A498 renal was over 100 µM; in the experiment on NCI-H226 lung, over 100 µM; in the experiment with MCF7 breast, 66.6 µM; in the experiment with A549 NSCLC, over 100 µM; in the experiment with SK-MEL-5 melanoma it was 34.9 µM; with DU-145 prostate, over 100 µM. The TGI in the experiment with RXF 393 renal, in the experiment with IGROV1 ovarian, with HL-60(TB) leukemia and in the experiment with CAKI-1 renal was over 100 µM in each case.

Take `Cc1cc(S(=O)(=O)N2CCNNC2=O)c(S)cc1Cl`: the TGI in the experiment with A498 renal, in the experiment with NCI-H226 lung, with MCF7 breast, in the experiment with A549 NSCLC, with SK-MEL-5 melanoma and in the experiment with DU-145 prostate was over 100 µM in each case. The TGI is 40.9 µM in the experiment on RXF 393 renal, over 100 µM with IGROV1 ovarian, over 100 µM in the experiment on HL-60(TB) leukemia and over 100 µM with CAKI-1 renal.

`COc1ccccc1Cc1ccc(C2C=CC3(CC(=O)C=C3C)C(=O)C2)o1` (stereo not given): the TGI with A498 renal was 47.7 µM; with NCI-H226 lung it was 61.6 µM; with MCF7 breast, 34.4 µM; with A549 NSCLC, over 100 µM; in the experiment with SK-MEL-5 melanoma, 29 µM; in the experiment on DU-145 prostate it was over 100 µM. Further, the TGI is 56.3 µM in the experiment on RXF 393 renal, over 100 µM in the experiment on IGROV1 ovarian, 41.7 µM in the experiment on HL-60(TB) leukemia and over 100 µM in the experiment on CAKI-1 renal.

Consider `Cc1ccc(C(=O)Nc2ccc(CP(=O)(O)O)cc2)cc1NC(=O)c1cccc(N)c1`, for which the TGI in the experiment on A498 renal, in the experiment on NCI-H226 lung, with MCF7 breast, in the experiment with A549 NSCLC, with SK-MEL-5 melanoma and with DU-145 prostate was over 100 µM in each case. In addition, the TGI in the experiment on RXF 393 renal, with IGROV1 ovarian, with HL-60(TB) leukemia and in the experiment with CAKI-1 renal was over 100 µM in each case.

With `CCCCCCCCCCCC(=O)OC[C@H](C[As](=O)(O)O)OC(=O)CCCCCCCCCCC`, the TGI in the experiment with A498 renal was 17.1 µM; with NCI-H226 lung, 38.8 µM; with MCF7 breast, 21.9 µM; with A549 NSCLC it was 20.5 µM; in the experiment on SK-MEL-5 melanoma, 4.54 µM; in the experiment with DU-145 prostate, 44.2 µM. Further, the TGI in the experiment with RXF 393 renal is 5.68 µM; in the experiment on IGROV1 ovarian, 4.07 µM; with HL-60(TB) leukemia, over 28.6 µM; with CAKI-1 renal, 20.8 µM.

For the compound `CCCNC(=S)N/N=C(\C)c1ccc(S(=O)(=O)N(C)c2ccccc2)cc1`, the TGI in the experiment on A498 renal is over 100 µM; in the experiment on NCI-H226 lung, over 75.6 µM; in the experiment with MCF7 breast it was over 100 µM; with A549 NSCLC, over 100 µM; with SK-MEL-5 melanoma it was over 100 µM; with DU-145 prostate, over 100 µM. Besides, the TGI in the experiment with RXF 393 renal was 38.2 µM; with IGROV1 ovarian it was over 66.1 µM; with HL-60(TB) leukemia, over 100 µM; in the experiment on CAKI-1 renal it was 97.7 µM.

`COc1cc2c(c(OC)c1OC)C(=O)[C@@H]1[C@H]2N1C(=O)NCCCl`: the TGI in the experiment on A498 renal, in the experiment with NCI-H226 lung, in the experiment on MCF7 breast, in the experiment with A549 NSCLC, with SK-MEL-5 melanoma and in the experiment with DU-145 prostate was over 100 µM in each case. The TGI with RXF 393 renal, with IGROV1 ovarian, in the experiment on HL-60(TB) leukemia and with CAKI-1 renal was over 100 µM throughout.

As to `CSC1(C)C(=O)Nc2c(OCc3ccccc3)cc([N+](=O)[O-])cc21` (stereo not given), the TGI in the experiment with A498 renal is over 100 µM; with NCI-H226 lung, 31 µM; in the experiment with MCF7 breast, 44.1 µM; in the experiment on A549 NSCLC, over 100 µM; in the experiment with SK-MEL-5 melanoma, over 100 µM; with DU-145 prostate, over 100 µM. Also, the TGI with RXF 393 renal, with IGROV1 ovarian, in the experiment on HL-60(TB) leukemia and in the experiment on CAKI-1 renal was over 100 µM throughout.

As for `O=c1c2ccccc2[nH]n1Cc1ccccc1`, the TGI with A498 renal, in the experiment with NCI-H226 lung, in the experiment on MCF7 breast, with A549 NSCLC, in the experiment with SK-MEL-5 melanoma and with DU-145 prostate was over 100 µM each time. The TGI with RXF 393 renal, with IGROV1 ovarian, with HL-60(TB) leukemia and in the experiment on CAKI-1 renal was over 100 µM throughout.

For `CC(=O)Nc1ccc2nc(-c3ccccn3)c(-c3ccccn3)nc2c1`, the TGI with A498 renal, in the experiment with NCI-H226 lung, in the experiment with MCF7 breast, with A549 NSCLC, in the experiment with SK-MEL-5 melanoma and in the experiment with DU-145 prostate was over 100 µM throughout. Further, the TGI with RXF 393 renal, in the experiment with IGROV1 ovarian, in the experiment on HL-60(TB) leukemia and in the experiment with CAKI-1 renal was over 100 µM throughout.

Values taken from PubChem BioAssay (NCI).
